Counter-ions that a name gives are not always drawn. Like-named read-outs stand apart in the source and are kept apart here.
What was measured:
[1] = Rotarod test (motor coordination, ataxia) in mice, therapeutic index versus MES; assay type: in vivo; conditions: ED50 for rotarod failure divided by ED50 for MES; for selectivity ratio at 0.5 h: mouse, in vivo, ip, read-out: TI Rot.; for TI Rot.: 30 min
Method: All compounds were dissolved in 0.9% saline.
(§1) The MES test was performed together with tests for myorelaxant action (traction reflex) and motor coordination (rotarod). For the traction reflex test mice were placed with their forepaws on a horizontal rod and were required to place all 4 paws on the wire within 10 seconds. To test ataxia (motor coordination) mice were placed on rotarod (5 rpm) and were required to remain on the rod for 1 minute. […] These tests were followed by MES (100 Hz, 0.5 second shock duration, 50 mA shock intensity, 0.9 ms impulse duration, Ugo Basile) applied through corneal electrodes. The presence of tonic convulsions was scored (tonic extension of hind paws with minimum angle to the body of 90°). The aim was to obtain ED50 s for all parameters scored (anticonvulsive activity and motor side effects) with use of the Litchfield Wilcoxon test for quantal dose responses. Division of the ED50 for side effects (ataxia or myorelaxation) by the ED50 for antagonism of electroshock convulsions was used as a therapeutic index (TI).
IC50 s in patch clamp, excitotoxicity, and binding studies were calculated according to the four parameter logistic equation using the Grafit computer program (Erithacus Software, England). Ki value for binding studies were then determined according to Cheng and Prusoff. […] Pearson product moment correlation analysis (Sigma Stat, Jandel Scientific) was used to compare in vitro potencies and in vivo anticonvulsant activity.

[2] = Traction reflex test (myorelaxant action) in mice, therapeutic index versus MES; assay type: in vivo; conditions: ED50 for traction reflex impairment divided by ED50 for MES; for selectivity ratio at 0.5 h: mouse, in vivo, ip, read-out: TI Tract; for TI Tract: 30 min
Method: (§2) NMR female mice (18-28 g) housed 5 per cage were used for the maximal electroshock (MES) and motor impairment tests. […] All compounds were dissolved in 0.9% saline.
as §1, with “(TI). […]” for “(TI).”

[3] = Maximal electroshock (MES)-induced convulsions in mice; assay type: in vivo; conditions: for ED50: Mus musculus; for MES ED50: 30 min
Method: as §2
as §1, with “(TI). […]” for “(TI).”

[4] = Solubility (analytical certificates); assay type: physicochemical
[5] = system: NMDA receptor; assay: Patch clamp: NMDA-induced inward currents in cultured hippocampal neurones; assay type: cell-based, rat
Method: Hippocampi were obtained from rat embryos (E20 to E21) and were then transferred to calcium and magnesium free Hank's buffered salt solution (Gibco) on ice. Cells were mechanically dissociated in 0.05% DNAase/0.3% ovomucoid (Sigma) following an 8 minute pre-incubation with 0.66% trypsin/0.1% DNAase (Sigma). The dissociated cells were then centrifuged at 18 ×g for 10 minutes, re-suspended in minimum essential medium (Gibco) and plated at a density of 150,000 cells cm^-2 onto poly-L-lysine (Sigma)-precoated plastic petri dishes (Falcon). The cells were nourished with NaHCO3 /HEPES-buffered minimum essential medium supplemented with 5% fetal calf serum and 5% horse serum (Gibco) and incubated at 37° C. with 5% CO2 at 95% humidity. […] Thereafter the medium was exchanged partially twice weekly.
Patch clamp recordings were made from these neurones with polished glass electrodes (4-6 m.OMEGA.) in the whole cell mode at room temperature (20-22° C.) with the aid of an EPC-7 amplifier (List). Test substances were applied by switching channels of a custom-made fast superfusion system with a common outflow (10-20 ms exchange times). The contents of the intracellular solution were as follows (mM): CsCl (120), TEACl (20), EGTA (10), MgCl2 (1), CaCl2 -(0.2), glucose (10), ATP(2), cAMP (0.25); pH was adjusted to 7.3 with CsOH or HC1. The extracellular solutions had the following basic composition (mM): NaCl (140), KCl (3), CaCl2 (0.2), glucose (10), HEPES (10), sucrose (4.5), tetrodotoxin (TTX 3*10^-4). Glycine (1 μM) was present in all solutions: a concentration sufficient to cause around 80-85% activation of glycineB receptors. Only results from stable cells were accepted for inclusion in the final analysis, i.e., following recovery of responses to NMDA by at least 75% of their depression by the antagonists tested.
IC50 s in patch clamp, excitotoxicity, and binding studies were calculated according to the four parameter logistic equation using the Grafit computer program (Erithacus Software, England). Ki value for binding studies were then determined according to Cheng and Prusoff. Binding values presented are means±SEM of 3-5 determinations (each performed in duplicate). […] Pearson product moment correlation analysis (Sigma Stat, Jandel Scientific) was used to compare in vitro potencies and in vivo anticonvulsant activity.

[6] = PTZ-induced convulsions; assay type: in vivo, mice; conditions: Mus musculus, ip; read-out: ED50 in the PTZ test
[7] = NMDA-induced convulsions; assay type: in vivo, mice; conditions: Mus musculus, ip; read-out: ED50 in the NMDA test
[8] = human, in vivo; cited from earlier work
[9] = ip, 0.5 h, Table 8, mice, i.p., 95% confidence limits in parentheses, read-out: MES ED50
[10] = Table 9; NMDA-induced currents; read-out: Patch Clamp IC50
[11] = Table 8, mice, i.p., 95% confidence limits in parentheses
[12] = read-out: Patch Clamp IC50; Table 7; NMDA 200 μM with glycine 1 μM at -70 mV
[13] = read-out: Patch Clamp IC50; Table 9; NMDA-induced currents
[14] = ip, 0.5 h, Table 7, mice, i.p., 30 min before, read-out: MES ED50
[15] = Table 7; NMDA 200 μM with glycine 1 μM at -70 mV; read-out: Patch Clamp IC50

C[C@@H]1C[C@H](C)C[C@](C)(N)C1 [MRZ 2/681, 1,cis-3,cis-5-Trimethylcyclohexylamine hydrochloride hydrate]
selectivity ratio at 0.5 h [1]: 5.8
selectivity ratio at 0.5 h [2]: 2.1
ED50 [3, 9]: 27.9 mg/kg
Solubility [4]: soluble in water, chloroform
IC50 [5, 10]: 30 µM

CC1(C)CCCC(C)(N)C1 (centres unmarked) [Mrz 2/621]
selectivity ratio at 0.5 h [1]: 1.5
selectivity ratio at 0.5 h [2]: 1.8
ED50 ([3]; ip, 0.5 h, read-out: MES ED50): 36.9 mg/kg
MES ED50 [3, 11]: 36.9 (22.6-60.3) mg/kg
IC50 [5, 12]: 92.4 µM
IC50 [5, 13]: 92.4 µM

CC[C@H]1CC(C)(C)C[C@@](C)(N)C1 [MRZ 2/683, (1S, 5S) cis-3-Ethyl-1,5,5-trimethylcyclohexylamine hydrochloride hydrate]
selectivity ratio at 0.5 h [1]: 3.5
selectivity ratio at 0.5 h [2]: 2.7
ED50 [3, 9]: 12.2 mg/kg
Solubility [4]: soluble in chloroform, poor soluble in water
IC50 [5, 10]: 4.3 µM

CCCC1(C)CCCC(C)(N)C1 (centres unmarked) [Mrz 2/617]
selectivity ratio at 0.5 h [1]: 1.1
ED50 [3, 14]: 54.9 mg/kg
ED50 [3, 9]: 54.9 mg/kg
IC50 [5, 15]: 57.4 µM
IC50 [5, 10]: 63.9 µM

CN(C)C1(C)CC(C)(C)CC(C)(C)C1 [Mrz 2/642]
TI Rot. [1]: 5.3
TI Tract [2]: 4.1
ED50 ([3]; ip, 0.5 h, read-out: MES ED50): 8.04 mg/kg
MES ED50 [3, 11]: 8.04 (5.1-12.7) mg/kg
IC50 [5, 12]: 42.5 µM
IC50 [5, 13]: 42.5 µM

CC[C@H]1CC(C)(C)C[C@](C)(N)C1 [MRZ 2/682, (1R, 5S) trans-3-Ethyl-1,5,5-trimethylcyclohexylamine hydrochloride]
selectivity ratio at 0.5 h [1]: 3.6
selectivity ratio at 0.5 h [2]: 2.7
ED50 [3, 9]: 7.6 mg/kg
Solubility [4]: soluble in chloroform, poor soluble in water
IC50 [5, 10]: 3.9 µM

CCCC1(C)CC(C)(C)CC(C)(N)C1 (centres unmarked) [Mrz 2/614]
selectivity ratio at 0.5 h [1]: 1.6
selectivity ratio at 0.5 h [2]: 1.9
ED50 [3, 14]: 23.5 mg/kg
ED50 [3, 9]: 23.5 mg/kg
IC50 [5, 15]: 13.9 µM
IC50 [5, 10]: 13.9 µM

CC1(C)CC(C)(C)CC(C)(N)C1 [Mrz 2/579, 1-amino-1,3,3,5,5-pentamethylcyclohexane]
ED50 [6]: 5.5 mg/kg
TI Tract [2]: 2.9
ED50 [3, 14]: 3.6 mg/kg
ED50 [3, 9]: 3.6 mg/kg
ED50 ([3]; iv, read-out: ED50 (anticonvulsive) following i.v. administration): 2.5 mg/kg
ED50 ([3]; po, read-out: ED50 (anticonvulsive) following p.o. administration): 13.7 mg/kg
ED50 ([3]; sc, read-out: ED50 (anticonvulsive) following s.c. administration): 4.6 mg/kg
IC50 [5, 15]: 1.3 µM
IC50 [5, 10]: 1.29 µM
ED50 [7]: 3.7 mg/kg

CCCC1(N)CC(C)(C)CC(C)(C)C1 [Mrz 2/601, 1-amino-1-propyl-3,3,5,5-tetramethylcyclohexane]
TI Rot. [1]: 1.5
TI Tract [2]: 1.5
ED50 ([3]; ip, 0.5 h, read-out: MES ED50): 15.6 mg/kg
MES ED50 [3, 11]: 15.6 (10.4-23.4) mg/kg
IC50 [5, 12]: 10.5 µM
IC50 [5, 13]: 10 µM

CCCC1(CCC)CC(C)(C)CC(C)(N)C1 (centres unmarked) [Mrz 2/626]
selectivity ratio at 0.5 h [1]: 1
selectivity ratio at 0.5 h [2]: 1.1
ED50 [3, 14]: 41.2 mg/kg
ED50 [3, 9]: 41.2 mg/kg
IC50 [5, 15]: 9.6 µM
IC50 [5, 10]: 9.6 µM

C[C@H]1CC(C)(C)C[C@@](C)(N)C1 (relative stereo) [Mrz 2/643]
selectivity ratio at 0.5 h [1]: 2.4
selectivity ratio at 0.5 h [2]: 1.3
ED50 [3, 14]: 18.6 mg/kg
ED50 [3, 9]: 18.6 mg/kg
IC50 [5, 15]: 13.5 µM
IC50 [5, 10]: 13.5 µM

C[C@@H]1C[C@H](C)C[C@@](C)(N)C1 [MRZ 2/680, 1,trans-3,trans-5-Trimethylcyclohexylamine hydrochloride]
selectivity ratio at 0.5 h [1]: 1.1
selectivity ratio at 0.5 h [2]: 0.7
ED50 [3, 9]: 34.5 mg/kg
Solubility [4]: soluble in water, chloroform
IC50 [5, 10]: 43 µM

CC(C)(N)CC1CC(C)(C)CC(C)(C)C1 [Mrz 2/645]
selectivity ratio at 0.5 h [1]: 0.6
ED50 [3, 14]: 65.6 mg/kg
ED50 [3, 9]: 65.6 mg/kg
IC50 [5, 15]: 20.4 µM
IC50 [5, 10]: 20.4 µM

CC1CC(C)CC(C)(N)C1 (centres unmarked) [Mrz 2/616, 1-amino-1,3,5-trimethylcyclohexane]
TI Tract [2]: 1.0
ED50 [3, 14]: 24 mg/kg
ED50 [3, 9]: 24 mg/kg
Solubility [4]: soluble in svater, chloroform
IC50 [5, 15]: 34.2 µM
IC50 [5, 10]: 33.2 µM

CCC1(C)CCCC(C)(N)C1 (centres unmarked) [Mrz 2/620]
selectivity ratio at 0.5 h [1]: 1.5
selectivity ratio at 0.5 h [2]: 1.6
ED50 [3, 14]: 41.3 mg/kg
ED50 [3, 9]: 41.3 mg/kg
IC50 [5, 15]: 99 µM
IC50 [5, 10]: 99 µM

CC12CC3CC(C)(C1)CC(N)(C3)C2 [Memantine, reference compound]
selectivity ratio at 0.5 h [1]: 2.5
selectivity ratio at 0.5 h [2]: 2.9
side effects in humans [8]: rarely produce side effects at the therapeutic doses
ED50 [3, 14]: 6.9 mg/kg
ED50 [3, 9]: 6.9 mg/kg
IC50 [5, 12]: 2.3 µM
IC50 [5, 13]: 2.87 µM
